Source: PubChem BioAssay (NCI)
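Briefly, cells in 96-well plates were exposed to five compound concentrations for 48 h, and endpoints were estimated by linear interpolation. GI50 is the concentration that inhibits growth by half. TGI marks complete inhibition of growth.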

Key:
Assay in all cases: NCI tumour cell line growth inhibition, 48 h
[1] = system: MDA-MB-468 breast
[2] = system: OVCAR-5 ovarian
[3] = system: NCI/ADR-RES ovarian
[4] = system: HCT-116 colon
[5] = system: OVCAR-3 ovarian
[6] = system: MDA-MB-231 breast
[7] = system: SR leukemia
[8] = system: NCI-H23 lung
[9] = system: KM12 colon
[10] = system: TK-10 renal
[11] = system: CAKI-1 renal
[12] = system: HT29 colon
[13] = system: UO-31 renal
[14] = system: A498 renal
[15] = system: RPMI-8226 leukemia
[16] = system: HL-60(TB) leukemia
[17] = system: SK-MEL-28 melanoma
[18] = system: SK-OV-3 ovarian
[19] = system: T-47D breast
[20] = system: DU-145 prostate
[21] = system: MALME-3M melanoma
[22] = system: SNB-75 CNS
[23] = system: UACC-257 melanoma
[24] = system: UACC-62 melanoma
[25] = system: SK-MEL-2 melanoma
[26] = system: HCT-15 colon
[27] = system: OVCAR-8 ovarian
[28] = system: BT-549 breast
[29] = system: SW-620 colon
[30] = system: SN12C renal
[31] = system: NCI-H226 lung
[32] = system: HS 578T breast
[33] = system: SK-MEL-5 melanoma
[34] = system: HOP-62 NSCLC
[35] = system: A549 NSCLC
[36] = system: ACHN renal
[37] = system: NCI-H522 lung
[38] = system: U251 CNS
[39] = system: SF-268 CNS
[40] = system: MDA-MB-435
[41] = system: NCI-H460 lung
[42] = system: EKVX NSCLC
[43] = system: HOP-92 NSCLC
[44] = system: K-562 leukemia
[45] = system: SF-539 CNS
[46] = system: COLO 205 colon
[47] = system: 786-0 renal
[48] = system: MOLT-4 leukemia
[49] = system: RXF 393 renal
[50] = system: OVCAR-4 ovarian
[51] = system: CCRF-CEM leukemia
[52] = system: LOX IMVI melanoma
[53] = system: HCC-2998 colon
[54] = system: MCF7 breast
[55] = system: SNB-19 CNS
[56] = system: PC-3 prostate
[57] = system: IGROV1 ovarian
[58] = system: SF-295 CNS
[59] = system: M14 melanoma

CCOc1ccccc1[C@H]1C(C(=O)c2ccc(Cl)cc2)C2(N[C@@H]1c1ccccc1)C(=O)Nc1ccccc12 (stereo partly drawn)
GI50 [1]: 1.31 µM | TGI [1]: 8.19 µM | GI50 [2]: 10.1 µM | TGI [2]: > 39.8 µM | GI50 [3]: 5.64 µM | TGI [3]: 16.6 µM | GI50 [4]: 6.75 µM | TGI [4]: > 39.8 µM | GI50 [5]: 7.68 µM | TGI [5]: > 39.8 µM | GI50 [6]: 5.37 µM | TGI [6]: 34.3 µM | GI50 [7]: 9.21 µM | TGI [7]: > 39.8 µM | GI50 [8]: 7.78 µM | TGI [8]: > 39.8 µM | GI50 [9]: 11.3 µM | TGI [9]: > 39.8 µM | GI50 [10]: 15.6 µM | TGI [10]: > 39.8 µM | GI50 [11]: 4.08 µM | TGI [11]: > 39.8 µM | GI50 [12]: 7.26 µM | TGI [12]: 36.1 µM | GI50 [13]: 5.82 µM | TGI [13]: > 39.8 µM | GI50 [14]: 7.7 µM | TGI [14]: 20.7 µM | GI50 [15]: 8.82 µM | TGI [15]: > 39.8 µM | GI50 [16]: 5.6 µM | TGI [16]: 32.4 µM | GI50 [17]: 17.4 µM | TGI [17]: > 39.8 µM | GI50 [18]: 22.1 µM | TGI [18]: > 39.8 µM | GI50 [19]: 6.48 µM | TGI [19]: > 39.8 µM | GI50 [20]: 13.1 µM | TGI [20]: > 39.8 µM | GI50 [21]: 7.4 µM | TGI [21]: 18.6 µM | GI50 [22]: 6.24 µM | TGI [22]: > 39.8 µM | GI50 [23]: 8.91 µM | TGI [23]: > 39.8 µM | GI50 [24]: 4.65 µM | TGI [24]: 18.2 µM | GI50 [25]: 7.37 µM | TGI [25]: 17.5 µM | GI50 [26]: 8.87 µM | TGI [26]: > 39.8 µM | GI50 [27]: 11.9 µM | TGI [27]: > 39.8 µM | GI50 [28]: 6.89 µM | TGI [28]: 22.8 µM | GI50 [29]: 10.1 µM | TGI [29]: > 39.8 µM | GI50 [30]: 5.56 µM | TGI [30]: 11.9 µM | GI50 [31]: 5.44 µM | TGI [31]: 18.5 µM | GI50 [32]: 6.08 µM | TGI [32]: 22.9 µM | GI50 [33]: 6.1 µM | TGI [33]: 12.2 µM | GI50 [34]: 18.9 µM | TGI [34]: > 39.8 µM | GI50 [35]: 10.4 µM | TGI [35]: > 39.8 µM | GI50 [36]: 10.1 µM | TGI [36]: > 39.8 µM | GI50 [37]: 6.14 µM | TGI [37]: 22.8 µM | GI50 [38]: 13 µM | TGI [38]: > 39.8 µM | GI50 [39]: 12.2 µM | TGI [39]: > 39.8 µM | GI50 [40]: 4.06 µM | TGI [40]: 16.3 µM | GI50 [41]: 8 µM | TGI [41]: 21.5 µM | GI50 [42]: 8.62 µM | TGI [42]: > 39.8 µM | GI50 [43]: 6.65 µM | TGI [43]: 29.3 µM | GI50 [44]: 9.06 µM | TGI [44]: > 39.8 µM | GI50 [45]: 23.3 µM | TGI [45]: > 39.8 µM | GI50 [46]: 6.82 µM | TGI [46]: 14 µM | GI50 [47]: 8.94 µM | TGI [47]: > 39.8 µM | GI50 [48]: 4.68 µM | TGI [48]: > 39.8 µM | GI50 [49]: 5.35 µM | TGI [49]: 19.2 µM | GI50 [50]: 14.8 µM | TGI [50]: > 39.8 µM | GI50 [51]: 29.2 µM | TGI [51]: > 39.8 µM | GI50 [52]: 2.85 µM | TGI [52]: 10.3 µM | GI50 [53]: 7.9 µM | TGI [53]: 29.8 µM | GI50 [54]: 6.78 µM | TGI [54]: > 39.8 µM | GI50 [55]: 16.6 µM | TGI [55]: > 39.8 µM | GI50 [56]: 2.77 µM | TGI [56]: > 39.8 µM | GI50 [57]: 8.69 µM | TGI [57]: > 39.8 µM | GI50 [58]: 7.88 µM | TGI [58]: > 39.8 µM | GI50 [59]: 7.69 µM | TGI [59]: > 39.8 µM
